Measured values taken from ChEMBL document CHEMBL3085678, “3-Azatetracyclo[5.2.1.1(5,8).0(1,5)]undecane derivatives: from wild-type inhibitors of the M2 ion channel of influenza A virus to derivatives with potent activity against the V27A mutant” (J Med Chem, 2013).
pEC50: −log10 of the molar value.

What was measured:
Influenza A virus [1] = assay: Antiviral activity against Influenza A virus (A/Puerto Rico/8/34(H1N1)) harboring M2 channel S31N and V27T mutant infected in MDCK cells assessed as reduction of cytopathic effect after 72 hrs by microsocopic analysis; type: functional, organism-based, A/Puerto Rico/8/1934(H1N1)
Influenza A virus [2] = assay: Antiviral activity against Influenza A virus (A/Puerto Rico/8/34(H1N1)) harboring M2 channel S31N and V27T mutant infected in MDCK cells assessed as reduction of cytopathic effect after 72 hrs by MTS assay; type: functional, organism-based, A/Puerto Rico/8/1934(H1N1)
H3N2 subtype [3] = assay: Antiviral activity against Influenza A virus (A/Hong Kong/7/1987(H3N2)) harboring wild type M2 channel infected in MDCK cells assessed as reduction of cytopathic effect after 72 hrs by microsocopic analysis; type: functional, organism-based
Influenza B virus [4] = assay: Antiviral activity against Influenza B virus (B/Hong Kong/05/1972) harboring wild type M2 channel infected in MDCK cells assessed as reduction of cytopathic effect after 72 hrs by MTS assay; type: functional, cell-based; conditions: B/Hong Kong/05/1972, MDCK
Influenza B virus [5] = assay: Antiviral activity against Influenza B virus (B/Hong Kong/05/1972) harboring wild type M2 channel infected in MDCK cells assessed as reduction of cytopathic effect after 72 hrs by microsocopic analysis; type: functional, cell-based; conditions: B/Hong Kong/05/1972, MDCK
H3N2 subtype [6] = assay: Antiviral activity against Influenza A virus (A/Hong Kong/7/1987(H3N2)) harboring wild type M2 channel infected in MDCK cells assessed as reduction of cytopathic effect after 72 hrs by MTS assay; type: functional, organism-based
H3N2 subtype [7] = assay: Antiviral activity against Influenza A virus (A/Hong Kong/7/1987(H3N2)) harboring wild type M2 channel infected in MDCK cells assessed as concentration required to 2 log10 reduction of virus yield after 24 hrs by RT-PCR analysis; type: functional

`CC12CC34CNCC3(C1)CC2(C)C4` gave a pEC50 (Influenza A virus [1]) of under 4.00, a pEC50 (Influenza A virus [2]) of under 4.00 and a pEC50 (H3N2 subtype [3]) of 5.80. The pEC50 (Influenza B virus [4]) was under 4.00, the pEC50 (Influenza B virus [5]) was under 4.00 and the pEC50 (H3N2 subtype [6]) was under 4.00.

With `CN1CC23CC4(C)CC2(C1)CC4(C)C3` the pEC50 (Influenza A virus [1]) was under 4.00, the pEC50 (Influenza A virus [2]) was under 4.00 and the pEC50 (H3N2 subtype [3]) was under 4.00. For the same compound, the pEC50 (Influenza B virus [4]) was under 4.00, the pEC50 (Influenza B virus [5]) was under 4.00 and the pEC50 (H3N2 subtype [6]) was under 4.00.

`CC12CC34CN(C(=N)N)CC3(C1)CC2(C)C4` showed a pEC50 (Influenza A virus [1]) of under 4.00, a pEC50 (Influenza A virus [2]) of under 4.00 and a pEC50 (H3N2 subtype [3]) of under 4.00. For the same compound, the pEC50 (Influenza B virus [4]) was under 4.00, the pEC50 (Influenza B virus [5]) was under 4.00 and the pEC50 (H3N2 subtype [6]) was under 4.00.

`C1NCC23CC4CC12CC4C3` gave a pEC50 (Influenza A virus [1]) of under 4.00, a pEC50 (Influenza A virus [2]) of under 4.00 and a pEC50 (H3N2 subtype [3]) of 5.10. It also gave a pEC50 (Influenza B virus [4]) of under 4.00, a pEC50 (Influenza B virus [5]) of under 4.00 and a pEC50 (H3N2 subtype [6]) of 5.14.

Compound `CN1CC23CC4CC2(CC4C3)C1` has a pEC50 (Influenza A virus [1]) of under 4.00, a pEC50 (Influenza A virus [2]) of under 4.00 and a pEC50 (H3N2 subtype [3]) of under 4.00. For the same compound, the pEC50 (Influenza B virus [4]) was under 4.00, the pEC50 (Influenza B virus [5]) was under 4.00 and the pEC50 (H3N2 subtype [6]) was under 4.00.

With `N=C(N)N1CC23CC4CC2(CC4C3)C1` the pEC50 (Influenza A virus [1]) was under 4.30, the pEC50 (Influenza A virus [2]) was under 4.30 and the pEC50 (H3N2 subtype [3]) was under 4.30. It also gave a pEC50 (Influenza B virus [4]) of under 4.30, a pEC50 (Influenza B virus [5]) of under 4.30 and a pEC50 (H3N2 subtype [6]) of under 4.30.

`CCC12CC34CNCC3(C1)CC2(CC)C4` gave a pEC50 (Influenza A virus [1]) of under 4.00, a pEC50 (Influenza A virus [2]) of under 4.00 and a pEC50 (H3N2 subtype [3]) of under 4.00. The pEC50 (Influenza B virus [4]) was under 4.00, the pEC50 (Influenza B virus [5]) was under 4.00 and the pEC50 (H3N2 subtype [6]) was under 4.00.

`CCC12CC34CN(C(=N)N)CC3(C1)CC2(CC)C4` was tested, and the pEC50 (Influenza A virus [1]) was under 4.00, the pEC50 (Influenza A virus [2]) was under 4.00 and the pEC50 (H3N2 subtype [3]) was under 4.00. The pEC50 (Influenza B virus [4]) was under 4.00, the pEC50 (Influenza B virus [5]) was under 4.00 and the pEC50 (H3N2 subtype [6]) was under 4.00.

In the case of `C1CCC23CC45CNCC4(CC2(C1)C5)C3`, the pEC50 (Influenza A virus [1]) was under 4.00, the pEC50 (Influenza A virus [2]) was under 4.00 and the pEC50 (H3N2 subtype [3]) was under 4.00. It also gave a pEC50 (Influenza B virus [4]) of under 4.00, a pEC50 (Influenza B virus [5]) of under 4.00 and a pEC50 (H3N2 subtype [6]) of under 4.00.

In the case of `N=C(N)N1CC23CC45CCCCC4(C2)CC3(C1)C5`, the pEC50 (Influenza A virus [1]) was under 4.00, the pEC50 (Influenza A virus [2]) was under 4.00 and the pEC50 (H3N2 subtype [3]) was under 4.00. The pEC50 (Influenza B virus [4]) was under 4.00, the pEC50 (Influenza B virus [5]) was under 4.00 and the pEC50 (H3N2 subtype [6]) was under 4.00.

With `NC12CC3CC(CC(C3)C1)C2` [AMANTADINE] the pEC50 (Influenza A virus [1]) was 4.47, the pEC50 (Influenza A virus [2]) was 4.42 and the pEC50 (H3N2 subtype [3]) was 6.08. The pEC50 (Influenza B virus [4]) was under 3.30, the pEC50 (Influenza B virus [5]) was under 3.30 and the pEC50 (H3N2 subtype [6]) was 6.09.

In the case of `CC(N)C12CC3CC(CC(C3)C1)C2` (stereo not drawn) [RIMANTADINE], the pEC50 (Influenza A virus [1]) was 4.74, the pEC50 (Influenza A virus [2]) was 5.37 and the EC99 (H3N2 subtype [7]) was over 4 µM. The pEC50 (H3N2 subtype [3]) was 6.21, the pEC50 (Influenza B virus [4]) was under 3.30 and the pEC50 (Influenza B virus [5]) was under 3.30. For the same compound, the pEC50 (H3N2 subtype [6]) was 6.92.
